Where two headings read alike, the source gives them in different places.
Legend:
SREBP-1 [1] = conditions: HepG2 cells, FIG. 5A
SREBP-1 [2] = conditions: H4IIE cells, FIG. 5A
SREBP-1 [3] = conditions: rat primary cultured liver cells, FIG. 5A
SREBP-1 [4] = conditions: HepG2 cells treated with T0901317; nuclear fraction; FIG. 5B
LXRα/RXRα complex = LXRα/RXRα complex (Homo sapiens, UniProt Q13133); conditions: LXRα and RXRα overexpressed; nuclear fraction; FIG. 3B
Method: Whether a binding capability of LXRE is changed by oltipraz treatment was identified by gel-shift assay. LXRE double-stranded oligonucleotide of a SREBP-1c gene was labeled with a radio active isotope at 5′-terminal by using [γ-^32P]ATP and T4 polynucleotide kinase, and then the labeled probe (1 ml, >10^6 cpm) was reacted with nuclear fraction proteins in a binding buffer solution. The reaction solution was subjected to electrophoresis in 4% polyacrylamide gel and then assayed by autoradiography. […] DNA binding specificity was identified by cold probe titration and supershift assay. For the cold probe titration, 20 times greater (molar base) un-labeled oligonucleotides were reacted in advance.

LXRα = conditions: high lipid diet 10 weeks; oltipraz 10-30 mg/kg, 3 times/week, last four weeks; p<0.01; FIG. 2
Method: (§1) Male C57BL/6 mice (average weight of 25 to 30 g) as test animals were purchased from Charles River Orient (Seoul, Korea). For at least one week before being tested, the mice were acclimatized to the surrounding environment in the animal test research center of the College of Pharmacy, Seoul National University, that is, humidity of 55±5%, temperature of 22±2° C., and controlled ventilation. The mice were repeatedly and alternately exposed to light and then placed in the dark for a time interval of 12 hours (from 7 A.M. to 7 P.M). […] The weight and state of the mice were measured once a week. Two groups of mice were respectively raised with a high lipid diet (Dyets Inc., Bethlehem) and a normal diet for 10 weeks. For the last four weeks in each case, oltipraz (10 or 30 mg/kg, 3 times/week) was administered to the mice (FIG. 1). Each group consisted of a total of 10 mice.
(§2) Total RNA (2 μg) and d(T)16 primer which were extracted from the liver of mice, and an AMV reverse transcriptase were used to obtain cDNA. The relative amounts of genes were quantified by realtime RT-PCR using a CyBr green dye. The realtime RT-PCR was Light-cycler^2.0 produced by Roche (Mannheim, Germany).

FAS = conditions: high lipid diet 10 weeks; oltipraz 10-30 mg/kg, 3 times/week, last four weeks; p<0.01; FIG. 9
Method: as §1, §2

ACC = conditions: high lipid diet 10 weeks; oltipraz 10-30 mg/kg, 3 times/week, last four weeks; p<0.01; FIG. 9
Method: as §1, §2

SREBP-1 [5] = conditions: high lipid diet 10 weeks; oltipraz 10-30 mg/kg, 3 times/week, last four weeks; p<0.01; FIG. 4
Method: as §1, §2

[6] = Method: as §1
[7] = within 12 hours after treatment
[8] = whole cell extract, co-treated with T0901317

Chain of LXRα/RXRα complex (Q13133 whole entry, one chain of several): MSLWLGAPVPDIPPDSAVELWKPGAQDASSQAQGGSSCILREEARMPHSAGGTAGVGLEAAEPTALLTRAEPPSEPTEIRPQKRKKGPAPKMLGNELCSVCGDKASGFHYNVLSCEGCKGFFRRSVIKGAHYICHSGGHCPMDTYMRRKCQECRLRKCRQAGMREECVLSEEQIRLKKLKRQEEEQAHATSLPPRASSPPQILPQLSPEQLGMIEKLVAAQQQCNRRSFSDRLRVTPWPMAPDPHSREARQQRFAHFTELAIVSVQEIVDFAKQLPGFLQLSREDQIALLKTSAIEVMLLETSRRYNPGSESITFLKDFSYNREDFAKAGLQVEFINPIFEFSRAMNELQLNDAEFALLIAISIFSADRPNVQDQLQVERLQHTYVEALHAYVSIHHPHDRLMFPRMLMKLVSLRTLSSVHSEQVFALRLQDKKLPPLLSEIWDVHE

For `O=S(=O)(c1ccccc1)N(CC(F)(F)F)c1ccc(C(O)(C(F)(F)F)C(F)(F)F)cc1` [compound 10901317], the “expression of SREBP-1 protein after LXRα activator alone” value (“expression … after LXRα activator alone” below) (SREBP-1 [1]; [7]) was “remarkably increased”, the “expression … after LXRα activator alone” value (SREBP-1 [2]; [7]) was “remarkably increased” and the “expression … after LXRα activator alone” value (SREBP-1 [3]; [7]) was “remarkably increased”.
For `Cc1c(-c2cnccn2)ssc1=S` [oltipraz, 4-methyl-5-(2-pyrazinyl)-1,2-dithiol-3-thione], the “increased nuclear localization of SREBP-1” value (SREBP-1 [4]) was “concentration-dependently reduced”, the “T0901317-increased expression of SREBP-1 protein” value (“T0901317-increased expression” for short) (SREBP-1 [1]; [8]) was “concentration-dependently reduced” and the “T0901317-increased expression” value (SREBP-1 [2]; whole cell extract, co-treated with T0901317, FIGS. 6-8) was “concentration-dependently reduced”. For the same compound, the “binding capability of LXRα with respect to DNA (LXRE)” value (LXRα/RXRα complex) was “substantially decreased”, the “increase in LXRα expression (mRNA, relative to normal diet group)” value (LXRα) was “inhibited” and the “increase in FAS expression (mRNA, relative to normal diet group)” value (FAS) was “inhibited”. The “increase in ACC expression (mRNA, relative to normal diet group)” value (ACC) was “inhibited”, the “increase in SREBP-1 expression (mRNA, relative to normal diet group)” value (SREBP-1 [5]) was “inhibited” and the “red part dyed with Oil-Red-O in liver tissue” value ([6]; HFD+Oltipraz versus HFD+vehicle, FIG. 11) was “remarkably reduced”. For the same compound, the “amount of triglyceride in liver tissues” value ([6]; high lipid diet 10 weeks, oltipraz administered, p<0.01, FIG. 10) was “significantly reduced” and the “T0901317-increased expression” value (SREBP-1 [3]; [8]) was “concentration-dependently reduced”.

From patent publication US9370504B2, “Pharmaceutical composition containing 1,2-dithiolthione derivative for preventing or treating disease caused by overexpression of LXR-α” (SNU R&DB FOUNDATION, priority 2008, dated 2016)
